Four molecules from patent publication US20150368692A1, “ANALYSIS OF THE ESTERIFICATION LEVEL OF CEREBROSTEROL AS A TOOL FOR DIAGNOSIS AND/OR PROGNOSIS OF NEURODEGENERATION” (INBIOS S.R.L., priority 2013, published 2015) can be followed below.

Assay [1] has as its system SH-SY5Y neuronal cells (neuroblastoma line), differentiated with retinoic acid. In words: Survival of differentiated SH-SY5Y neuronal cells (Crystal Violet staining, absorbance at 595 nm). The class given is cell-based, human. The settings on record: for cells survived after incubation: 5 h at 37° C./5% CO2 in DMEM and 0.5% HSA, then 16 h in fresh medium. On the procedure: FIG. 2. Box A. Cells from the SH-SY5Y cell line were differentiated by incubation with 10 μM of retinoic acid in DMEM containing 0.5% foetal bovine serum, 1% Pen-Strep, 1% L-glutamine, 1% of a mixture of factors known as “N2 medium supplement”, essentially in accordance with a published procedure. The incubation was performed for 3 days at 37° C. in an atmosphere containing 5% CO2 (37° C./5% CO2). 7×10^3 cells were laid in each well of a microplate and then challenged with different concentrations of 24(S)OH—CNE and finally analysed in order to evaluate the survival of the cells, as described in Example 1. Each sample was analysed in three separate experiments. The data are expressed as means±SD (SD=standard deviation). Box B. 20 μM^3H-24(S)OH—CNE (300,000 dpm/mL) was incubated with 250 ng/mL purified LCAT and proteoliposomes containing 2 μM ApoA-I and 266 μM phosphatidylcholine (ApoA-I/PC) in DMEM with 0.5% HSA for various periods of time (from 1 to 6 h) at 37° C./5% CO2. After incubation, the esterified and non-esterified forms of oxysterol were extracted and analysed as described in Example 1. The level of esterification is indicated in terms of percentage of ^3H-24(S)OH-CE. Each sample was analysed in three separate experiments. The data are expressed as means±SD. Box C. Differentiated cells, as in the key of box A, were challenged with 20 μM ^3H-24(S)OH—CNE (300,000 dpm/mL) previously treated or untreated, as described for box B, with LCAT and ApoA-I/PC for 5 h. […] The culture medium was analysed in order to measure any unincorporated radioactive material, whereas the lysate was analysed in order to measure any incorporated radioactive material (expressed as % of the sum of incorporated radioactive material plus unincorporated radioactive material). […] Each sample was analysed in three separate experiments. The data are expressed as means±SD.
FIG. 3. […] Cellular survival after 5 h of incubation at 37° C./5% CO2, was evaluated as described in Example 1. Each sample was analysed in three separate experiments. The data are expressed as means±SD. […]

The target in assay [2] is T1, LCAT (Homo sapiens, UniProt P04180).
T1 sequence (P04180 25-440): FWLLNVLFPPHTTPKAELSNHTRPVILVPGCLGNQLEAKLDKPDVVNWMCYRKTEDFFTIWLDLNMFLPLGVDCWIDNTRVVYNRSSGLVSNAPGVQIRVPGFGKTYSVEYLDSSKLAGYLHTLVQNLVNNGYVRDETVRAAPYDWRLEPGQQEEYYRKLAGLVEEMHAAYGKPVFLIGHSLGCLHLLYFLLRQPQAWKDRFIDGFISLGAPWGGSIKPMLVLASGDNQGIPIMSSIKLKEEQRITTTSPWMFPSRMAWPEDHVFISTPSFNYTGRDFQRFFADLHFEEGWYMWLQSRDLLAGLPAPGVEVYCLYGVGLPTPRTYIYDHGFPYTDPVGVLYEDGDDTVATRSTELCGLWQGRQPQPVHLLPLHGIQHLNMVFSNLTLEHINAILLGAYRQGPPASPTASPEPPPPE
Kind of assay: Activity of LCAT in esterifying 3H-24(S)OH-CNE after oxidative treatment of the enzyme. The settings on record: 1 mM SIN-1 as oxidant, 20 min pre-incubation, stopped with antioxidant mixture; 2 μM ApoA-I/266 μM phosphatidylcholine; control 19.11±0.49; P=2.4×10^−3. The class given is biochemical. How it is done: FIG. 5. An outline of the process to which three samples have been subjected is shown at the top. At the bottom, the components of each sample are shown in a table. […] Purified LCAT (250 ng/mL) was pre-incubated and added to the culture medium for cellular incubation (containing ApoA-I/PC) as indicated in the table at the bottom. 1 mM Asc was used to separate the pre-incubation from the incubation in the processes to which the samples were subjected. Each sample was analysed in three separate experiments. The data, expressed as means±SD, were analysed using the Graph Pad Prism 3 program (Graph Pad Software; San Diego, Calif., USA) in order to determine the significance of the difference of B from A and C (P=10^−5).
The purified enzyme LCAT was treated with an oxidative stress system and was then incubated with 24(S)OH—CNE in order to evaluate the efficiency of esterification of this oxysterol. […] The measurement of the absorbance of ABTS^[…]+ (at 414 nm) […], at 30° C., oxidative species which effectively oxidise ABTS and that the addition of 1 mM Asc to the mixture prevents or blocks oxidation of the target. […]

Assay [3] addresses T1, LCAT. In words: Esterification of 3H-24(S)OH-CNE by purified LCAT with ApoA-I/PC proteoliposomes (TLC, liquid scintillation). The class given is biochemical. The settings on record: 20 μM substrate, 250 ng/mL LCAT, proteoliposomes 2 μM ApoA-I/266 μM phosphatidylcholine, 5 h pre-incubation at 37° C./5% CO2. On the procedure: FIG. 2. Box A. Cells from the SH-SY5Y cell line were differentiated by incubation with 10 μM of retinoic acid in DMEM containing 0.5% foetal bovine serum, 1% Pen-Strep, 1% L-glutamine, 1% of a mixture of factors known as “N2 medium supplement”, essentially in accordance with a published procedure. The incubation was performed for 3 days at 37° C. in an atmosphere containing 5% CO2 (37° C./5% CO2). 7×10^3 cells were laid in each well of a microplate and then challenged with different concentrations of 24(S)OH—CNE and finally analysed in order to evaluate the survival of the cells, as described in Example 1. Each sample was analysed in three separate experiments. The data are expressed as means±SD (SD=standard deviation). […] After incubation, the esterified and non-esterified forms of oxysterol were extracted and analysed as described in Example 1. […] Each sample was analysed in three separate experiments. The data are expressed as means±SD. […] The culture medium was analysed in order to measure any unincorporated radioactive material, whereas the lysate was analysed in order to measure any incorporated radioactive material (expressed as % of the sum of incorporated radioactive material plus unincorporated radioactive material). […] Each sample was analysed in three separate experiments. The data are expressed as means±SD. […]

In assay [4] the test system is SH-SY5Y neuronal cells (neuroblastoma line), differentiated with retinoic acid. In words: Incorporation of 3H-24(S)OH-CNE in differentiated SH-SY5Y cells and its esterification in the cells. The class given is cell-based, human. The settings on record: 4 h of incubation; for 3H-24(S)OH-CNE incorporated in the cultured cells: 20 μM. On the procedure:
FIG. 2. Box A. Cells from the SH-SY5Y cell line were differentiated by incubation with 10 μM of retinoic acid in DMEM containing 0.5% foetal bovine serum, 1% Pen-Strep, 1% L-glutamine, 1% of a mixture of factors known as “N2 medium supplement”, essentially in accordance with a published procedure. The incubation was performed for 3 days at 37° C. in an atmosphere containing 5% CO2 (37° C./5% CO2). 7×10^3 cells were laid in each well of a microplate and then challenged with different concentrations of 24(S)OH—CNE and finally analysed in order to evaluate the survival of the cells, as described in Example 1. Each sample was analysed in three separate experiments. The data are expressed as means±SD (SD=standard deviation). Box B. 20 μM^3H-24(S)OH—CNE (300,000 dpm/mL) was incubated with 250 ng/mL purified LCAT and proteoliposomes containing 2 μM ApoA-I and 266 μM phosphatidylcholine (ApoA-I/PC) in DMEM with 0.5% HSA for various periods of time (from 1 to 6 h) at 37° C./5% CO2. After incubation, the esterified and non-esterified forms of oxysterol were extracted and analysed as described in Example 1. The level of esterification is indicated in terms of percentage of ^3H-24(S)OH-CE. Each sample was analysed in three separate experiments. The data are expressed as means±SD. Box C. Differentiated cells, as in the key of box A, were challenged with 20 μM ^3H-24(S)OH—CNE (300,000 dpm/mL) previously treated or untreated, as described for box B, with LCAT and ApoA-I/PC for 5 h. After various incubation times (from 1 to 6 h), the cells were separated from the culture medium and lysed. The culture medium was analysed in order to measure any unincorporated radioactive material, whereas the lysate was analysed in order to measure any incorporated radioactive material (expressed as % of the sum of incorporated radioactive material plus unincorporated radioactive material). […] Each sample was analysed in three separate experiments. The data are expressed as means±SD.
In Step 1B, 20 μM of ^3H-24(S)OH—CNE (300,000 dpm/mL) was pre-incubated in culture medium (DMEM containing 0.5% HSA) in the presence or absence of 250 ng/mL LCAT, purified in accordance with a published procedure, and proteoliposomes containing ApoA-I and phosphatidylcholine (ApoA-I/PC), prepared in accordance with a published procedure omitting cholesterol. […] In particular, the amount of esterified ^3H-24(S)OH—CNE (that is to say ^3H-24(S)OH-CE) was measured as detailed hereinafter. […] The stationary phase regions harbouring ^3H-24(S)OH-CE (Rf=0.70-0.75) and ^3H-24(S)OH—CNE (Rf=0.25-0.35) were separately removed and then analysed for the radioactivity content thereof by liquid scintillation using the Packard TriCarb 2100TR counter (Global Medical Instrumentation, Ramsey, Mich., USA). […]

Setting [5] is: medium pre-incubated in the presence of LCAT and proteoliposomes.
Setting [6] is: medium pre-incubated without LCAT and proteoliposomes.

`CC(C)[C@@H](O)CC[C@@H](C)[C@H]1CC[C@H]2[C@@H]3CC=C4C[C@@H](O)CC[C@]4(C)[C@H]3CC[C@]12C` [24(S)OH—CNE, cerebrosterol]: the “cells survived after incubation” value in assay [1] (10 μM 24(S)OH-CNE) was found to be 58%; in assay [1] (20 μM 24(S)OH-CNE) it was 43%.

Regarding `[NH-]c1c[n+](N2CCOCC2)no1` [SIN-1, 3-morpholino-sidnonimine], the “LCAT activity of esterification of 24(S)OH-CNE (mean±SD)” value on LCAT [2] was 12.77 ± 0.78 nmol/h/mL.

Turning to `[3H]C(C([3H])[C@@H](C)[C@H]1CC[C@H]2[C@@H]3CC=C4C[C@@H](O)CC[C@]4(C)[C@H]3CC[C@]12C)[C@H](O)C(C)C` (stereo partly drawn) [^3H-24(S)OH—CNE], on LCAT [3], the “3H-24(S)OH-CNE found esterified by LCAT (mean±SD)” value is 49.3±2.8%. Further, the “percentage of 3H-24(S)OH-CE in the cells” value in assay [4] (setting [5]) is listed as “approximately 50%”; in assay [4] (setting [6]), “approximately 60%”. Besides, the results for the “3H-24(S)OH-CNE incorporated in the cultured cells” value in assay [4] (setting [5]) and in assay [4] (setting [6]) were 6% and 14%, respectively.

B1: LCAT: lecithin-cholesterol acyltransferase, E.C. 2.3.1.43; purified enzyme, used at 250 ng/mL (protein, UniProt P04180 25-440, looked up)
Phosphatidylcholine-sterol …: FWLLNVLFPPHTTPKAELSNHTRPVILVPGCLGNQLEAKLDKPDVVNWMCYRKTEDFFTIWLDLNMFLPLGVDCWIDNTRVVYNRSSGLVSNAPGVQIRVPGFGKTYSVEYLDSSKLAGYLHTLVQNLVNNGYVRDETVRAAPYDWRLEPGQQEEYYRKLAGLVEEMHAAYGKPVFLIGHSLGCLHLLYFLLRQPQAWKDRFIDGFISLGAPWGGSIKPMLVLASGDNQGIPIMSSIKLKEEQRITTTSPWMFPSRMAWPEDHVFISTPSFNYTGRDFQRFFADLHFEEGWYMWLQSRDLLAGLPAPGVEVYCLYGVGLPTPRTYIYDHGFPYTDPVGVLYEDGDDTVATRSTELCGLWQGRQPQPVHLLPLHGIQHLNMVFSNLTLEHINAILLGAYRQGPPASPTASPEPPPPE
As for B1, the “effect of LCAT treatment of the culture medium on the toxic effect of 24(S)OH-CNE on the cells” value in assay [1] (20 μM 24(S)OH-CNE pre-incubated 5 h with LCAT and proteoliposomes, cells 5 h, then 16 h fresh medium, versus control treatment without LCAT) was “significantly reduced the toxic effect”.
